# How the values were obtained:
# Assay type in all cases: biochemical
# [1] = target: T1, TaKaRa Taq DNA polymerase (Thermus aquaticus, UniProt P19821); assay: Effects of acidic substances on TaKaRa Taq DNA polymerase, PCR of 8 kb fragment (Example 5(2)); parameters: key: ++: Intensive amplification being observed; +: Amplification being observed; ±: Slight amplification being observed; −: No amplification being observed; conditions: 10 U TaKaRa Taq, 100 pg λDNA, 25 μl, 30 cycles 98°C 5 s-68°C 3 min, added 0.25 ng polysaccharide-F, 0.25 ng dextran sulfate or 0.5 μg sodium alginate
# T1 construct: purchased Takara Shuzo Co., Ltd
# T1 sequence (P19821 whole entry, the tested form may be a part): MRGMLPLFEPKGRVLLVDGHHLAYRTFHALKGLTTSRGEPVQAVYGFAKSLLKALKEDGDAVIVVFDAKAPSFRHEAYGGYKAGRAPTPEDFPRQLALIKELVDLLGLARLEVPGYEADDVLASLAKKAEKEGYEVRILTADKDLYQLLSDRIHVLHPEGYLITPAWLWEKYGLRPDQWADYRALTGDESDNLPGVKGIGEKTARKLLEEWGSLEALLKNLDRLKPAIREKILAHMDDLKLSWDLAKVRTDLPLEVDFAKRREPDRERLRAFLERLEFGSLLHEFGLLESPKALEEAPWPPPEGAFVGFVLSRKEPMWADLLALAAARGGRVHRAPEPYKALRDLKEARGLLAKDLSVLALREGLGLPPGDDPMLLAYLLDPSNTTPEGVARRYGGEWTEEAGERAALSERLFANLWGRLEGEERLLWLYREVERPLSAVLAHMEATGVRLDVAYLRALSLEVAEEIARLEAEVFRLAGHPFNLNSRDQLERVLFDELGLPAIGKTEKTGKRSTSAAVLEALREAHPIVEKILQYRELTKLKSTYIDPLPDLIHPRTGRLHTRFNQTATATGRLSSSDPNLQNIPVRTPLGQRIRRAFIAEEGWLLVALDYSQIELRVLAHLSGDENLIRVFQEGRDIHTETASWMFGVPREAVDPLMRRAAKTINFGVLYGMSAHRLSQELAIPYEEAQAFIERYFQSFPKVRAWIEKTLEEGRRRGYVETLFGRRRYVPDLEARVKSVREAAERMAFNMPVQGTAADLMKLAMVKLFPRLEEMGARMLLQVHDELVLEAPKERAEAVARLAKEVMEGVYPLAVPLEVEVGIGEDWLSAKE
# Excerpt: Using as acidic substances the sulfated-fucose-containing polysaccharide-F obtained by the process described in Item (1) of Example 5, dextran sulfate powder (manufactured by Onco), or sodium alginate (100 to 150 centipoises, manufactured by Wako Pure Chemicals), the effects of these acidic substances on the activity of TaKaRa Taq DNA polymerase (manufactured by Takara Shuzo Co., Ltd.) were examined.
# A PCR reagent mixture comprising λDNA as a template, primers λ1 and λ7 as a primer pair and TaKaRa Taq DNA polymerase as a DNA polymerase was prepared, and PCR was carried out. The PCR reagent mixture was prepared so as to have the following composition.
# Buffer for TaKaRa Taq DNA polymerase, 10 U of TaKaRa Taq DNA polymerase, 100 pg of λDNA, 0.2 mM each of DATP, dCTP, dGTP and dTTP, and 5 pmol each of primers λ1 and λ7 (final volume being 25 μl). Further, 0.25 ng of the sulfated-fucose-containing polysaccharide-F, 0.25 ng of dextran sulfate powder, or 0.5 μg of sodium alginate were added as acidic substances to the above PCR reagent mixture.
# The reaction was carried out in 30 cycles for a total time period of PCR of about 110 minutes, wherein one cycle of reaction comprises a process consisting of 98° C., 5 seconds-68° C., 3 minutes. […]
# [2] = tested on: Polymerase A; assay: Rapid PCR by combination of Polymerase A with acidic substance, about 10 kb fragment (Example 6(1)); parameters: key: ++: Intensive amplification being observed; +: Amplification being observed; ±: Slight amplification being observed; −: No amplification being observed; conditions: 0.5 μl Polymerase A, 10 pg λDNA, 2.5 μg sodium alginate, 30 cycles 98°C 5 s-68°C 75 s
# Method: (1) Rapid PCR by Combination of Polymerase A with Acidic Substance Using λDNA as template, a PCR reagent mixture comprising λDNA as a template, primers λ1 and λ8 as a primer pair was prepared, and PCR was carried out. The composition for a PCR reagent mixture is as follows.
# 50 mM Tris-acetate (pH 8.5), 0.2 mM each of dATP, dCTP, dGTP and dTTP, 3 mM magnesium acetate, 50 mM potassium acetate, 10 pg of λDNA, 0.5 μl of Polymerase A and 10 pmol each of primers λ1 and λ8 (final volume being 25 μl). Further, 2.5 μg of sodium alginate was added to the above PCR reagent mixture. As a control, a PCR reagent mixture without adding sodium alginate was also prepared.
# Reaction Conditions: The reaction was carried out in 30 cycles, wherein one cycle of reaction comprises a process consisting of 98° C., 5 seconds-68° C., 75 seconds. The reaction was carried out in fast mode using TaKaRa PCR Thermal Cycler PERSONAL (manufactured by Takara Shuzo Co., Ltd.).
# After the termination of reaction, 6 μl each of the resulting sample was electrophoresed on 1% agarose gel containing ethidium bromide in an amount of 0.00005%, thereby confirming an amplified fragment of about 10 kb.
# [3] = tested on: Polymerase B; assay: Rapid PCR by combination of Polymerase B with acidic substance, 12 kb fragment (Example 6(2)); parameters: key: + to +++: Extent of amplification is shown in 3 grades.; + to +++: Extent of amplification is shown in 3 grades.; + to +++: Extent of amplification is shown in 3 grades; conditions: 0.5 μl Polymerase B, 10 pg λDNA, 25 μl, 30 cycles 98°C 5 s-68°C 3 min, added 0.75 ng polysaccharide-F or 5 μg sodium alginate
# Method: A PCR reagent mixture comprising λDNA as a template and primers λ1 and λ9 as a primer pair was prepared, and PCR was carried out. The composition for a PCR reagent mixture is as follows.
# Buffer for TaKaRa EX Taq DNA polymerase, 0.2 mM each of dATP, dCTP, dGTP and dTTP, 10 pg of λDNA, 0.5 μl of Polymerase B and 5 pmol each of primers λ1 and λ9 (final volume being 25 μl). Further, 0.75 ng of sulfated-fucose-containing polysaccharide-F or 5 μg of sodium alginate was added, respectively, to the above PCR reagent mixture.
# (§1) The reaction was carried out in 30 cycles, wherein one cycle of reaction comprises a process consisting of 98° C., 5 seconds-68° C., 3 minutes. After the termination of reaction, 5 μl of the resulting sample was electrophoresed on 1% agarose gel containing ethidium bromide in an amount of 0.00005%, thereby confirming an amplified fragment.
# [4] = tested on: λDNA; assay: Effect of amount of DNA polymerase and acidic substance, PCR of 10 kb fragment (Example 7); conditions: sodium alginate 2.5 μg added to Polymerase B; image analyzer FM-BIO
# Method: A PCR reagent mixture comprising λDNA as a template and primers λ1 and λ8 as a primer pair was prepared, and PCR was carried out. In this PCR, TaKaRa EX Taq DNA polymerase and Polymerase B were used. The composition for a PCR reagent mixture is shown below.
# Buffer for TaKaRa EX Taq DNA polymerase, 0.2 mM each of dATP, dCTP, dGTP and dTTP, 10 pg of λDNA, 1.25 U of TaKaRa EX Taq DNA polymerase or 0.5 μl of Polymerase B and 10 pmol each of primers λ1 and λ8 (final volume being 50 μl).
# Further, to the above PCR reagent mixture was added 2.5 μg of sodium alginate, to prepare a PCR reagent mixture.
# as §1, with “30 cycles for a total period for PCR of about 80 minutes,” for “30 cycles,”, “C., 2” for “C., 3”, “reaction, 8” for “reaction, 5”
# [5] = tested on: Polymerase B; assay: Combination of spergualins and acidic substances with Polymerase B, 10 kb fragment of λDNA (Example 8(1)); parameters: key: + to ++++: Extent of amplification is shown in 4 grades.; + to ++++: Extent of amplification is shown in 4 grades.; + to ++++: Extent of amplification is shown in 4 grades.; + to ++++: Extent of amplification is shown in 4 grades.; −: No amplification being observed; conditions: No 15-deoxyspergualin/2.5 μg sodium alginate, 0.5 μl Polymerase B, 10 pg λDNA, 30 cycles 98°C 5 s-68°C 90 s
# Method: (1) A PCR reagent mixture comprising λDNA as a template and primers λ1 and λ8 as a primer pair was prepared, and rapid PCR was carried out. In this PCR, Polymerase B was used. As the spergualins, 15-deoxyspergualin trihydrochloride was used, and as the acidic substances, sodium alginate (manufactured by Wako Pure Chemicals) was used. The composition for a PCR reagent mixture is shown below.
# 50 mM Tris-acetate buffer (pH 8.5), 0.2 mM each of dATP, dCTP, dGTP and dTTP, 3 mM magnesium acetate, 50 mM potassium acetate, 10 pg of λDNA, 10 pmol each of primers λ1 and λ8. To the above PCR reagent mixture was added 0.5 μl of Polymerase B, and further 15-deoxyspergualin trihydrochloride and sodium alginate were added in combination at concentrations shown in Table 10, making up a final volume of 50 μl. In addition, as controls, there were respectively prepared a PCR reagent mixture in which 2.5 μg of sodium alginate was added without adding 15-deoxyspergualin trihydrochloride, and a PCR reagent mixture in which both 15-deoxyspergualin trihydrochloride and sodium alginate were not added.
# Rapid PCR was carried out in 30 cycles for a total time period of PCR of about 65.5 minutes, wherein one cycle of reaction comprises a process consisting of 98° C., 5 seconds-68° C., 90 seconds. […]
# [6] = tested on: Polymerase A; assay: Combination of spergualins and acidic substances with Polymerase A, 20 kb fragment of E. coli genomic DNA (Example 8(2)); parameters: key: ++: Intensive amplification being observed; +: Amplification being observed; ±: Slight amplification being observed; −: No amplification being observed; conditions: No 15-deoxyspergualin/2.5 μg sodium alginate, 0.5 μl Polymerase A, 5 ng E. coli genomic DNA, 30 cycles 98°C 5 s-68°C 3 min
# Method: (2) The effects of the combination of spergualins and acidic substances on the DNA polymerase were studied in a case where template DNA was E. coli genomic DNA. The composition for a PCR reagent mixture is shown below.
# The composition for the PCR reagent mixture was the same as that in Item (1) of Example 8, except for using 5 ng of E. coli genomic DNA (manufactured by Takara Shuzo Co., Ltd.) and 10 pmol each of primers of Eco-1 and Eco-6. To the above PCR reagent mixture was added 0.5 μl of Polymerase A, and further were added in combination 2.5 μg of sodium alginate and 15-deoxyspergualin trihydrochloride so as to have a final concentration of 1 μM, 5 μM or 10 μM, respectively, making up a final volume of 50 μl. In addition, as controls, there were respectively prepared a PCR reagent mixture in which 2.5 μg of sodium alginate was only added without adding 15-deoxyspergualin trihydrochloride, and a PCR reagent mixture in which both 15-deoxyspergualin trihydrochloride and sodium alginate were not added.
# Rapid PCR was carried out in 30 cycles for a total time period of PCR of about 110 minutes, wherein one cycle of reaction comprises a process consisting of 98° C., 5 seconds-68° C., 3 minutes. […]
Substance,Amplification Results [1],Amplification Results [2],Amplification Results [3],Amount of the amplified product compared to the case where no sodium alginate was added [4],Amplification Results [5],Amplification Results [6]
dextran sulfate [Dextran Sulfate Powder],++,,,,,
sodium alginate,++,++,+++,about five times,+,±

# From patent US6673578B1, “Method for synthesizing DNA” (Takara Shuzo Co., Ltd., priority 1998, dated 2004)
